Data taken from patent US9493444B2 (Merck Patent GmbH, priority 2012, dated 2016).

Test system: Wnt pathway (TCF-dependent transcription in HEK293 luciferase reporter cell line with ER-DSH construct)
Assay: Cellular assay for Wnt pathway activity (luciferase reporter)
Type: cell-based
Settings: Homo sapiens; Wnt pathway inhibition, HEK293 luciferase reporter cells (ER-DSH, TCF promoter), 24 hours incubation, estrogen-induced
How it was run: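 Luminescent luciferase read-out after 24 h compound exposure at 1 nM to 30 μM, with TCF-driven transcription switched on by estrogen addition. IC50 values come from curve fits of data normalized against the vehicle-only control.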

First: CSc1cccc(Oc2cncc(N(C)CCN(C)C(C)=O)n2)c1 [Compound 50, N-Methyl-N-(2-{methyl-[6-(3-methyl-sulfanyl-phenoxy)-pyrazin-2-yl]-amino}-ethyl)-acetamide]
Second: COc1cccc(Oc2cncc(N(C)CCN(C)C(C)=O)n2)c1 [Compound 41, N-(2-{[6-(3-Methoxy-phenoxy)-pyrazin-2-yl]-methyl-amino}-ethyl)-N-methyl-acetamide]
The IC50 of the first is lower: 0.2 to 1 µM for the first, 1 to 10 µM for the second.

First: CC(=O)N(C)CCN(C)c1cncc(Oc2ccc3[nH]c(=O)oc3c2)n1 [Compound 154, N-Methyl-N-(2-{methyl-[6-(2-oxo-2,3-dihydro-benzooxazol-6-yloxy)-pyrazin-2-yl]-amino}-ethyl)-acetamide]
Second: CC(=O)N(C)CCN(C)c1cncc(Oc2ccc3ccncc3c2)n1 [Compound 112, N-(2-{[6-(Isoquinolin-7-yloxy)-pyrazin-2-yl]-methyl-amino}-ethyl)-N-methyl-acetamide]
The IC50 of the first is higher: 1 to 10 µM for the first, under 0.2 µM for the second. The second is the more potent here.

`CC(=O)Nc1ccc(-c2ccc(Oc3cncc(NCCN(C)C(C)=O)n3)cc2)cn1` [Compound 260, N-(2-{6-[4-(6-Acetylamino-pyridin-3-yl)-phenoxy]-pyrazin-2-ylamino}-ethyl)-N-methyl-acetamide] and `CC(=O)Nc1cccc(-c2ccc(Oc3cncc(NCCN(C)C(C)=O)n3)cc2)n1` [Compound 235, N-(2-{6-[4-(6-Acetylamino-pyridin-2-yl)-phenoxy]-pyrazin-2-ylamino}-ethyl)-N-methyl-acetamide] fall in the same range of IC50: 0.2 to 1 µM for the first, 0.2 to 1 µM for the second.

Compared with `CCOC(=O)Cc1ccc(Oc2cncc(N(C)CCN(C)C(C)=O)n2)cc1` [Compound 137, [4-(6-{[2-(Acetyl-methyl-amino)-ethyl]-methyl-amino}-pyrazin-2-yloxy)-phenyl]-acetic acid ethyl ester], `CCOC(=O)c1cccc(Oc2cncc(N(C)CCN(C)C(C)=O)n2)c1` [Compound 45, 3-(6-{[2-(Acetyl-methyl-amino)-ethyl]-methyl-amino}-pyrazin-2-yloxy)-benzoic acid ethyl ester] is higher in IC50: under 0.2 µM for the first, 1 to 10 µM for the second. The first is the more potent here.

Compared with `O=C1CCCCN1CCNc1cncc(Oc2ccc(N3CCOCC3)cc2)n1` [Compound 307, 1-{2-[6-(4-Morpholin-4-yl-phenoxy)-pyrazin-2-ylamino]-ethyl}-piperidin-2-one], `CC(=O)N(C)CCNc1cncc(Oc2ccc(F)cc2)n1` [Compound 66, N-{2-[6-(4-Fluoro-phenoxy)-pyrazin-2-ylamino]-ethyl}-N-methyl-acetamide] is higher in IC50: 0.2 to 1 µM for the first, 1 to 10 µM for the second.

First: CC(=O)N(C)CCN(C)c1cncc(Oc2ccc(-c3cncc4[nH]ccc34)cc2)n1 [Compound 237, N-Methyl-N-[2-(methyl-{6-[4-(1H-pyrrolo[2,3-c]pyridin-4-yl)-phenoxy]-pyrazin-2-yl}-amino)-ethyl]-acetamide]
Second: CC(=O)N(C)CCN(C)c1cncc(Oc2ccc(-c3cnn(C)c3)cc2)n1 [Compound 313, N-Methyl-N-[2-(methyl-{6-[4-(1-methyl-1H-pyrazol-4-yl)-phenoxy]-pyrazin-2-yl}-amino)-ethyl]-acetamide]
The IC50 of the first is higher: 0.2 to 1 µM for the first, under 0.2 µM for the second. The second is the more potent here.

Compared with `CNC(=O)CCN(C)c1cncc(Oc2ccc(-c3ccc(C)cn3)cc2)n1` [Compound 247, N-Methyl-3-(methyl-{6-[4-(5-methyl-pyridin-2-yl)-phenoxy]-pyrazin-2-yl}-amino)-propionamide], `CNC(=O)CCN(C)c1cncc(Oc2ccc(F)cc2)n1` [Compound 29] is higher in IC50: under 0.2 µM for the first, 0.2 to 1 µM for the second.

First: CC(=O)N(C)CCN(C)c1cncc(Oc2ccc(-c3ccc(N4CCNCC4)nc3)cc2)n1 [Compound 245, N-Methyl-N-[2-(methyl-{6-[4-(6-piperazin-1-yl-pyridin-3-yl)-phenoxy]-pyrazin-2-yl}-amino)-ethyl]-acetamide]
Second: CC(=O)N(C)CCN(C)c1cncc(Oc2ccc(-c3cc(N4CCN(C)CC4)ccn3)cc2)n1 [Compound 173, N-Methyl-N-{2-[methyl-(6-{4-[4-(4-methyl-piperazin-1-yl)-pyridin-2-yl]-phenoxy}-pyrazin-2-yl)-amino]-ethyl}-acetamide]
The IC50 of the first is lower: under 0.2 µM for the first, 1 to 10 µM for the second. The first is the more potent here.

`CC(=O)N(C)CCN(C)c1cncc(Oc2ccc(C3CCCCC3)cc2)n1` [Compound 99, N-(2-{[6-(4-Cyclohexyl-phenoxy)-pyrazin-2-yl]-methyl-amino}-ethyl)-N-methyl-acetamide] and `CC(=O)N(C)CCN(C)c1cncc(OC2CCCCC2)n1` [Compound 48, N-{2-[(6-Cyclo-hexyloxy-pyrazin-2-yl)-methyl-amino]-ethyl}-N-methyl-acetamide] fall in the same range of IC50: 1 to 10 µM for the first, 1 to 10 µM for the second.

Compared with `CC(=O)N(C)CCN(C)c1cncc(Oc2ccc(-c3c(F)c(F)nc(F)c3F)cc2)n1` [Compound 236, N-Methyl-N-[2-(methyl-{6-[4-(2,3,5,6-tetrafluoro-pyridin-4-yl)-phenoxy]-pyrazin-2-yl}-amino)-ethyl]-acetamide], `CCOc1ccc(-c2ccc(Oc3cncc(N(C)CCN(C)C(C)=O)n3)cc2)c(F)c1F` [Compound 180, N-(2-{[6-(4′-Ethoxy-2′,3′-difluoro-biphenyl-4-yloxy)-pyrazin-2-yl]-methyl-amino}-ethyl)-N-methyl-acetamide] is higher in IC50: under 0.2 µM for the first, 0.2 to 1 µM for the second. The first is the more potent here.

Compared with `CC(=O)N(C)CCCc1cncc(Oc2ccc(-c3ccc(C)cn3)cc2)c1` [Compound 312, N-Methyl-N-(3-{5-[4-(5-methyl-pyridin-2-yl)-phenoxy]-pyridin-3-yl}-propyl)-acetamide], `CC(=O)N(C)CCN(C)c1cncc(Oc2ccc(-c3ccc(C)cn3)cc2)c1` [Compound 320, N-Methyl-N-[2-(methyl-{5-[4-(5-methyl-pyridin-2-yl)-phenoxy]-pyridin-3-yl}-amino)-ethyl]-acetamide] is lower in IC50: 1 to 10 µM for the first, 0.2 to 1 µM for the second. The second is the more potent here.

First: CN(CCN(C)c1cncc(Oc2ccc(F)cc2)n1)C(=O)CN(C)C(=O)OC(C)(C)C [Compound 285, {[(2-{[6-(4-Fluoro-phenoxy)-pyrazin-2-yl]-methyl-amino}-ethyl)-methyl-carbamoyl]-methyl}-methyl-carbamic acid tert-butyl ester]
Second: CN(CCN(C)c1cncc(Oc2ccc(F)cc2)n1)C(=O)CO [Compound 286, N-(2-{[6-(4-Fluoro-phenoxy)-pyrazin-2-yl]-methyl-amino}-ethyl)-2-hydroxy-N-methyl-acetamide]
The IC50 of the first is higher: 1 to 10 µM for the first, under 0.2 µM for the second. The second is the more potent here.

`COc1ccc(Oc2cncc(N(C)CCN(C)C(=O)CC(C)(C)C)n2)cc1` [Compound 32, N-(2-{[6-(4-Methoxy-phenoxy)-pyrazin-2-yl]-methyl-amino}-ethyl)-3,3-N-trimethyl-butyramide] and `COc1ccc(Oc2cncc(N(C)CCN(C)C(=O)C(F)(F)F)n2)cc1` [Compound 79, 2,2,2-Trifluoro-N-(2-{[6-(4-methoxy-phenoxy)-pyrazin-2-yl]-methyl-amino}-ethyl)-N-methyl-acetamide] fall in the same range of IC50: 1 to 10 µM for the first, 1 to 10 µM for the second.

Compared with `CC(=O)N(C)CCN(C)c1cncc(Oc2ccc(Br)c(F)c2F)n1` [Compound 248, N-(2-{[6-(4-Bromo-2,3-difluoro-phenoxy)-pyrazin-2-yl]-methyl-amino}-ethyl)-N-methyl-acetamide], `CC(=O)N(C)CCN(C)c1cncc(Oc2ccc(C(=O)c3ccco3)cc2)n1` [Compound 157, N-[2-({6-[4-(Furan-2-carbonyl)-phenoxy]-pyrazin-2-yl}-methyl-amino)-ethyl]-N-methyl-acetamide] is lower in IC50: 0.2 to 1 µM for the first, under 0.2 µM for the second.

First: COc1ccc(Oc2cncc(N(C)CCN(C)S(=O)(=O)c3ccc(F)cc3F)n2)cc1 [Compound 60, 2,4-Difluoro-N-(2-{[6-(4-methoxy-phenoxy)-pyrazin-2-yl]-methyl-amino}-ethyl)-N-methyl-benzene-sulfonamide]
Second: COc1ccc(Oc2cncc(N(C)CCNC(C)=O)n2)cc1 [Compound 59, N-(2-{[6-(4-Methoxy-phenoxy)-pyrazin-2-yl]-methyl-amino}-ethyl)-acetamide]
The IC50 of the first is higher: 1 to 10 µM for the first, 0.2 to 1 µM for the second. The second is the more potent here.

First: CC(=O)N(C)CCCc1cncc(Oc2ccc(-c3ccncc3C#N)cc2)c1 [Compound 321, N-(3-{5-[4-(3-Cyano-pyridin-4-yl)-phenoxy]-pyridin-3-yl}-propyl)-N-methyl-acetamide]
Second: CC(=O)N(C)CCNc1cncc(Oc2ccc(-c3ccncc3C#N)cc2)n1 [Compound 242, N-(2-{6-[4-(3-Cyano-pyridin-4-yl)-phenoxy]-pyrazin-2-ylamino}-ethyl)-N-methyl-acetamide]
The IC50 of the first is lower: under 0.2 µM for the first, 1 to 10 µM for the second. The first is the more potent here.

First: CNCCN(C)c1cncc(Oc2ccc(-c3cccc(N4CCN(C)CC4)n3)cc2)n1 [Compound 134, N,N′-Dimethyl-N-(6-{4-[6-(4-methyl-piperazin-1-yl)-pyridin-2-yl]-phenoxy}-pyrazin-2-yl)-ethane-1,2-diamine]
Second: COc1ccc(-c2ccc(Oc3cncc(NCCN(C)C(C)=O)n3)cc2)nc1 [Compound 240, N-(2-{6-[4-(5-Methoxy-pyridin-2-yl)-phenoxy]-pyrazin-2-ylamino}-ethyl)-N-methyl-acetamide]
The IC50 of the first is higher: 1 to 10 µM for the first, 0.2 to 1 µM for the second. The second is the more potent here.

Compared with `CCN(CC1CCCN(c2cncc(Oc3ccc(OC)cc3)n2)C1)C(C)=O` (stereo not drawn) [Compound 73, N-Ethyl-N-{1-[6-(4-methoxy-phenoxy)-pyrazin-2-yl]-piperidin-3-ylmethyl}-acetamide], `CCN(CCN(CC)c1cncc(Oc2ccc(F)cc2)n1)C(C)=O` [Compound 102, N-Ethyl-N-(2-{ethyl-[6-(4-fluoro-phenoxy)-pyrazin-2-yl]-amino}-ethyl)-acetamide] is lower in IC50: 1 to 10 µM for the first, 0.2 to 1 µM for the second.

Compared with `CC(=O)N(C)CCN(C)c1cncc(Oc2ccc(C(=O)Nc3cccnc3)cc2)n1` [Compound 231, 4-(6-{[2-(Acetyl-methyl-amino)-ethyl]-methyl-amino}-pyrazin-2-yloxy)-N-pyridin-3-yl-benzamide], `CC(=O)Oc1cnc(-c2ccc(Oc3cncc(N(C)CCN(C)C(C)=O)n3)cc2)nc1` [Compound 155, Acetic acid 2-[4-(6-{[2-(acetyl-methyl-amino)-ethyl]-methyl-amino}-pyrazin-2-yloxy)-phenyl]-pyrimidin-5-yl ester] is higher in IC50: under 0.2 µM for the first, 1 to 10 µM for the second. The first is the more potent here.

Work on `CC(=O)N(C)CCNc1cncc(Cc2ccc(F)cc2)n1` [Compound 322, N-{2-[6-(4-Fluoro-benzyl)-pyrazin-2-ylamino]-ethyl}-N-methyl-acetamide] yielded an IC50 of 1 to 10 µM.
